Experimental data taken from patent US5639726A, “Peptide mediated enhancement of thrombolysis methods and compositions” (The Regents of the University of Michigan, priority 1994, dated 1997).
Entries after “also recorded” stand apart in the source; their conditions may differ. Ends that are not written are not given here.

Experiments:
[1] = biological target: T1, PAI-1 (Homo sapiens, UniProt P05121); test: SDS-PAGE of peptide treated PAI-1 reacted with tPA, uPA or trypsin; format: biochemical; conditions: for formation of SDS stable PAI-1:enzyme complexes after peptide treatment: free PAI-1 preincubated with peptide, then tPA (uPA or trypsin); for conversion of PAI-1 to a substrate (cleaved PAI-1): peptide treated PAI-1 reacted with tPA
T1 construct: made in house; host or cells: E. coli (vector pET3a)
Experimental: SDS-polyacrylamide gel electrophoresis (SDS-PAGE) under nonreducing conditions was carried out according to the method of Laemmli (Laemmli, 1970) on 10% gels. Native gel electrophoresis with 5% gels was carried out by omitting SDS and boiling from Laemmli's method. All gels were stained with Coomassie brilliant blue. Gels of PAI-peptide samples were scanned with an LKB Ultroscan XL Laser Densitometer to determine the relative amounts of peptide-annealed and latent PAI.
PAI that had been incubated with peptide was tested for inhibitory and substrate activity by incubating with tPA, uPA or trypsin. SDS-PAGE was then performed on the samples. Free PAI formed a complex band when incubated with any of the enzymes, as well as a faint band indicative of cleaved PAI. Because substoichiometric amounts of enzyme were used there was also a band for free PAI. When PAI was incubated with any of the peptides, the electrophoretic mobility was the same as that of free PAI after denaturing with SDS. When PAI was annealed to any of 8-mers, then allowed to react with tPA, uPA or trypsin, no PAI-enzyme complex band was seen.
SDS-PAGE was performed using a PhastSystem (Pharmacia), Upssala, Sweden, according to manufacturer's instructions. Gels were stained with Coomassie Brilliant Blue.
SDS-PAGE was performed to determine the effect of Thr-Val-Ala-Ser-Ser-Ser-Thr-Ala-Val-Ile-Val-Ser-Ala-Arg (SEQ ID NO: 1) on t-PA:PAI-1 complex formation in the presence and absence of vitronectin.

[2] = biological target: T2, vitronectin-bound PAI-1 (Homo sapiens, UniProt P05121); test: PAI-1 activity assay in the presence of vitronectin; format: biochemical; conditions: for T1/2 of vitronectin-bound PAI-1: PAI-1 0.7 μM with vitronectin 1.7 μM, 37° C., 190±12 minutes without peptide
T2 construct: made in house; host or cells: E. coli (PAI-1); vitronectin a gift
Experimental: PAI-1 (0.7 μM) was incubated at 37° C. with either P1-P14 peptide or control peptide (55 μM) in 0.1M HEPES, 0.1M NACl, 0.1% PEG (MW 8000), pH 7.4 (assay buffer). At timed intervals 0-110 minutes), 5 μL of the PAI-1:peptide mixture was added to 96 well microtiter plates containing 45 μL of t-PA (0.03 μM in assay buffer), then incubated for 30 minutes at 37° C. Spectrozyme t-PA (final concentration of 150 μM) was added to yield a final reaction volume of 70 μL, and 30 minutes later the absorbance at 405 nm was determined in a THERMO-max (Molecular Devices, Palo Alto, Calif.) microplate reader. 100% PAI-1 activity was defined as activity observed at time zero, while 0% PAI-1 activity was defined as that observed in the absence of PAI-1. A standard t-PA activity curve, derived from absorbance values of varying concentrations of t-PA incubated in the absence of PAI-1, was used to determine PAI-1 activity.
Since vitronectin binds and stabilizes the active conformation of PAI-1, the capacity of the Thr-Val-Ala-Ser-Ser-Ser-Thr-Ala-Val-Ile-Val-Ser-Ala-Arg (SEQ ID NO: 1) to inactivate vitronectin-bound PAI-1 was examined. PAI-1 (0.7 μM) was incubated with vitronectin (1.7 μM) for 30 minutes at 37° C., then Thr-Val-Ala-Ser -Ser-Ser-Thr-Ala-Val-Ile-Val-Ser-Ala-Arg (SEQ ID NO: 1) or control peptide (55 μM) was added, and the PAI-1 T1/2 was determined. In the presence of vitronectin, the T1/2 of PAI-1 was prolonged approximately 2-fold (98±18 to 190±12 minutes), similar to previous reports (Declerck et al. 1988).

[3] = test system: platelet-rich clots; test: In vitro clot lysis assay, platelet-rich clots; format: biochemical, human
Experimental: Blood samples were collected by peripheral venipuncture from normal subjects into acid-citrate-dextrose anticoagulant (0.8% w/v citric acid, 2.2% trisodium citrate, 2.45% dextrose) at a ratio of 6 volumes of blood to 1 volume of anticoagulant. Donors had not consumed aspirin for at least 7 days prior to phlebotomy. Washed platelets were prepared by repeated centrifugation as previously described (Fay et al., 1994), then resuspended in Tyrode's buffer (137 mM NACl, 2.68 mM KCl, 2 mM CaCl2, 1 mM MgCl2, 0.36 mM NaH2 PO4, 11.9 mM NaHCO3, 5 mM HEPES, 0.1% glucose, 0.35% bovine serum albumin, pH 7.35). Clot lysis assays were performed as previously described (Fay et al., 1994). […] The fluorescence of this dilution was measured and % clot lysis was calculated, as previously described (Fay et al., 1994). […] The capacity of P1-P14 peptide to accelerate fibrinolysis in vitro, both in the absence and presence of platelets was also evaluated. […] After 30 min at 37° C., fibrinolysis was initiated by the addition of t-PA (20 nM), and % clot lysis was determined 60 min later. […]

T2 sequence (P05121 24-402): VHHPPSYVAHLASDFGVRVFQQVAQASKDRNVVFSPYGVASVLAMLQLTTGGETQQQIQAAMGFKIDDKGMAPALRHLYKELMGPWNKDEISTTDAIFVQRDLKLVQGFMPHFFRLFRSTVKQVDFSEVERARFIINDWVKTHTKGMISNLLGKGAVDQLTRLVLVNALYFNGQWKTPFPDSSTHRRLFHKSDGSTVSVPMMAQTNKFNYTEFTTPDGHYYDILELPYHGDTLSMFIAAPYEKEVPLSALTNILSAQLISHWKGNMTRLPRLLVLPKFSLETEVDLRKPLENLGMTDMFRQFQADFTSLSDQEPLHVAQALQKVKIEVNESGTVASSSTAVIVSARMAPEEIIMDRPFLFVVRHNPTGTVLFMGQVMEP
T1 sequence (P05121 24-402): as above

formation of SDS stable PAI-1:enzyme complexes after peptide treatment ([1]; listed as P1-P14 peptide): inhibited complex formation
conversion of PAI-1 to a substrate (cleaved PAI-1) ([1]; listed as wt14-mer): did not behave as a substrate
T1/2 of vitronectin-bound PAI-1 ([2]; peptide 55 μM): about 120 minutes
T1/2 of vitronectin-bound PAI-1 ([2]; peptide 55 μM, listed as P1-P14 peptide): only slowly inactivated
decrease of the half-life of PAI-1 in the presence of vitronectin ([2]; from approximately 190 to about 120 minutes): ~40%
fold decrease of the half-life of vitronectin-bound PAI-1 ([2]; peptide 55 μM): 1.6 fold
Substance: Ac-TVASSSTAVIVSAR [SEQ ID NO: 1, Thr-Val-Ala-Ser-Ser-Ser-Thr-Ala-Val-Ile-Val-Ser-Ala-Arg]
formation of SDS stable PAI-1:enzyme complexes after peptide treatment [1]: no t-PA:PAI-1 complex formation was observed
PAI forms on SDS-PAGE ([1]; high peptide concentration): almost all of the PAI is in the latent conformation
PAI forms on SDS-PAGE ([1]; low peptide concentration): a significant substrate band formed along with the dominant latent PAI band
conversion of PAI-1 to a substrate (cleaved PAI-1) [1]: did not convert PAI-1 to a substrate form; also recorded: substrate form of PAI-1 was not generated
tPA induced platelet rich clot lysis ([3]; 70 μM peptide): significant enhancement
lysis of platelet-rich clots at 90 minutes ([3]; 2.5×10^8 platelets/mL, t-PA 75 pM, 8±3% without peptide): 41±12%
